Data as given in patent US20090232915A1, “MIXTURES WITH A COLLAGEN SYNTHESIS BOOSTING ACTION” (SYMRISE GmbH & Co., KG, priority 2008, published 2009).
“And” between values parts separate entries of the source, which are not always exact repeats. Identical values can stand only once.

Test system: normal human dermal fibroblasts (NHDF)
Test: Collagen synthesis boosting activity, Sirius Red staining of collagen in fibroblast monolayer (96 well)
Type: cell-based
Conditions: 48 h incubation
Experimental: Method for determining the collagen synthesis boosting activity of selected substances of natural or synthetic origin.
Fibroblasts are responsible for collagen synthesis in the dermis layer of the skin. The test system involves culturing normal human dermal fibroblasts (NHDF) in a “monolayer” culture in 96 well MTPs, incubating them over a defined period with test substances and then determining the increase in collagen qualitatively by a staining method.
The principle of the assay is based on histological, specific staining of the soluble collagen (predominantly type I and III collagen) with the assistance of the dye Sirius Red (Direct Red 80). Sirius Red is an anionic dye having sulfonic acid groups attached to its side chains. These sulfonic acid groups react with the side chain groups of the amino acids (proline, hydroxyproline, lysine and hydroxylysine) predominantly occurring in collagen, it being necessary for an intact collagen structure to be present.
The model used for the assay design is the procedure described in B. J. Walsh et al., Analytical Biochemistry 203, 187-190 (1992) for the quantitative determination of collagen on the 96 well scale. […]
After a 24 h adaptation phase for the NHDF, the cells are incubated (37° C., 5% CO2) for 48 h with the incubation solution and corresponding control solutions (solvent and blank). […] The absorption of the resultant dye solution can be determined photometrically at 540 nm.
Thanks to the linear relationship between collagen content and the OD values arising from staining, the increase in OD is determined for qualitative assessment of the collagen synthesis boosting effect. To this end, the mean and standard deviations of the controls and the test samples are calculated and then a background or blank correction is made. […]
The synergy index (SI) values of the ternary mixtures according to the invention were calculated according to Kull (literature: F. C. Kull et al, Applied Microbiology vol. 9, p. 538-541 (1961); D. C. Steinberg, Cosmetics & Toiletries vol. 115(11), 59-62 (2000) by means of the following equation. […]

[1] = usage concentration 1.020 mg/ml

SMILES	Collagen synthesis boost [%], relative to untreated control [1] [%]	Collagen synthesis boost [%], relative to untreated control (usage concentration 0.362 mg/ml)
O=C1O[C@H]([C@@H](O)CO)C([O-])=C1OP(=O)([O-])[O-].O=C1O[C@H]([C@@H](O)CO)C([O-])=C1OP(=O)([O-])[O-].[Mg+2].[Mg+2].[Mg+2] [Magnesium ascorbyl phosphate (Bio1300/1), Magnesium ascorbyl phosphate]	141.13	
O=C1O[C@H]([C@@H](O)CO)C([O-])=C1OP(=O)([O-])[O-].O=C1O[C@H]([C@@H](O)CO)C([O-])=C1OP(=O)([O-])[O-].[Mg+2].[Mg+2].[Mg+2] [Magnesium ascorbyl phosphate (Bio172), Magnesium ascorbyl phosphate]		66.97% and 67.44%
O=C1O[C@H]([C@@H](O)CO)C([O-])=C1OP(=O)([O-])[O-].[Na+].[Na+].[Na+] [Sodium ascorbyl phosphate (Bio1586), Sodium ascorbyl phosphate]	144.57	
